The record followed here is BindingDB's records for doi:10.1021/jm00091a008 (Alter, 1992).

The target of the experiment is Voltage-dependent L-type calcium channel subunit alpha-1C (Oryctolagus cuniculus, UniProt P15381). The experiment in a line: ChEBML_164619. The text has this: Blockade of calcium-evoked contractions in depolarized aortic strips
Sequence of Voltage-dependent L-type calcium channel subunit alpha-1C (P15381 whole entry): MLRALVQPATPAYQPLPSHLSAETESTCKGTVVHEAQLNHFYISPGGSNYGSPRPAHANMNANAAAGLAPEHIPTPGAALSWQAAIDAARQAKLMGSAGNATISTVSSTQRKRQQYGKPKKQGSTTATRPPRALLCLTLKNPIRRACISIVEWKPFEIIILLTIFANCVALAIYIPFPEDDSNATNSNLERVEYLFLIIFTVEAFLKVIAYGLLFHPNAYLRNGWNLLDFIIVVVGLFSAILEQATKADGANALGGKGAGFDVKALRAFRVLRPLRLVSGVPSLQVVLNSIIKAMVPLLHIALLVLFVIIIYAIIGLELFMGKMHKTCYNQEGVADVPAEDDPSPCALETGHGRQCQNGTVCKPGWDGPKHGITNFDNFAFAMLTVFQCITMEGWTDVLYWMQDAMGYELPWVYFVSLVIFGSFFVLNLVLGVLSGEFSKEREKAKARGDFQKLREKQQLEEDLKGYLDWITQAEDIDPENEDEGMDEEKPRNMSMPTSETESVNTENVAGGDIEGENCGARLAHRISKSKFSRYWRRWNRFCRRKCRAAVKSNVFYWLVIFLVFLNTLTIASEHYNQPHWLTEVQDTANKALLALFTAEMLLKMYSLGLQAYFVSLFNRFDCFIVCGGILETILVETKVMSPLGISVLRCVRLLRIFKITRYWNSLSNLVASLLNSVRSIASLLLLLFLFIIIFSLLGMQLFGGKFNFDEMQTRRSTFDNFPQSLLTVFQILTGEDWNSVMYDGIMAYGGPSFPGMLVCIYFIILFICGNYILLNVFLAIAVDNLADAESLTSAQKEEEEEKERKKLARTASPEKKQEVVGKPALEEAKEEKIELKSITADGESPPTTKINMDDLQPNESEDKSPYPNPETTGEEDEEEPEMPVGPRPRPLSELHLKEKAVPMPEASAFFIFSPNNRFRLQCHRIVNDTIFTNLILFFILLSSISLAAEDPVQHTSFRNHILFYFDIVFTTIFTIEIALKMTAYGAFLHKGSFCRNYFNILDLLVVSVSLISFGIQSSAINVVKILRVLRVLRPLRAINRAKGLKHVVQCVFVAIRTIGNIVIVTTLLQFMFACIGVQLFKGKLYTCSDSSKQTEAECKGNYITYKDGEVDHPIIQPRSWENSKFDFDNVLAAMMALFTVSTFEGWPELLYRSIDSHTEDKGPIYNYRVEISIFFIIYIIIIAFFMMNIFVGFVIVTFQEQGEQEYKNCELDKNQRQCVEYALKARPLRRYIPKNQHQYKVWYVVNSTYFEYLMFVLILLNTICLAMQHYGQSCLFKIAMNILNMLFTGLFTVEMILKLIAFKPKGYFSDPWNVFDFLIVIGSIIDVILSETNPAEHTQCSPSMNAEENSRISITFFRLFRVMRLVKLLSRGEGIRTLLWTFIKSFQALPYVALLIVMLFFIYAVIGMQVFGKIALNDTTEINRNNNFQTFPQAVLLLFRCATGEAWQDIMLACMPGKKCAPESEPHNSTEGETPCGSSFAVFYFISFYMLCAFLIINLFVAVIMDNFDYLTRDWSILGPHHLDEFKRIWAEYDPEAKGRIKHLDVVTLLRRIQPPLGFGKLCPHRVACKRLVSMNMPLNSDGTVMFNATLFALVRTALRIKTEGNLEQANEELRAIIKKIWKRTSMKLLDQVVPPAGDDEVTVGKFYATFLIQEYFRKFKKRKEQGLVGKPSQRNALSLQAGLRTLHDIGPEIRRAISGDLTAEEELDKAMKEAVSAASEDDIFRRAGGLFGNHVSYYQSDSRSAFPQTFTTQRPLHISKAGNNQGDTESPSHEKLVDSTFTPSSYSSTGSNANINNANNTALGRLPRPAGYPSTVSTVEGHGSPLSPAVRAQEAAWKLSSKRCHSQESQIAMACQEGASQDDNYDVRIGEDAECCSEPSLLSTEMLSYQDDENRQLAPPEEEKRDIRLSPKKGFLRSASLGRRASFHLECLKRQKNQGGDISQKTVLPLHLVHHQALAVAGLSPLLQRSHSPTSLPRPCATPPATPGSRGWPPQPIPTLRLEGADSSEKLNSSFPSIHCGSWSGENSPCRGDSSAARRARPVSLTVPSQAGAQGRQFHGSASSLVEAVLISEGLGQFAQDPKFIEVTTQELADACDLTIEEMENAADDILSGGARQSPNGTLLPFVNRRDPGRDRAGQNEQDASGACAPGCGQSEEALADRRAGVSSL
For `CC1=NC(C)=C(C(=O)OCC2CCCCO2)C(c2ccccc2[N+](=O)[O-])C1=C(O)OCN1C(=O)c2ccccc2S1(=O)=O` (centres undefined), the IC50 came out at 25 nM.
The result for `COC(=O)C1C(C)=NC(C)=C(C(=O)OCN2C(=O)c3ccccc3S2(=O)=O)C1c1cccc(Cl)c1Cl` (centres undefined) reads 5.1 nM.
The same measure for `COCCOC(=O)C1C(C)=NC(C)=C(C(=O)OCN2C(=O)c3ccccc3S2(=O)=O)C1c1cccc(Cl)c1Cl` (centres undefined): 2.9 nM; for `CC1=NC(C)=C(C(=O)OCC2CCCO2)C(c2cccc([N+](=O)[O-])c2)C1=C(O)OCN1C(=O)c2ccccc2S1(=O)=O` (centres undefined): 25 nM.

For orientation: IC50 means the concentration at which inhibition is half-maximal.
